In brackets after ≈: the same amount, converted by molar mass.
What was measured:
Test in all cases: MIC, microdilution broth method (NCCLS)
Format in all cases: cell-based
[1] = test system: H. influenzae ATCC49247; settings: 35° C., 16-20 hours; for MIC: Haemophilus influenzae
Description: (§1) Minimal inhibitory concentration (MIC) has been an indicator of in vitro antibacterial activity widely used in the art. The in vitro antimicrobial activity of the compounds was determined by the microdilution broth method following the test method from the National Committee for Clinical Laboratory Standards (NCCLS). This method is described in the NCCLS Document M7-A4, Vol.17, No.2, “Methods for Dilution Antimicrobial Susceptibility Test for Bacteria that Grow Aerobically—Fourth Edition”, which is incorporated herein by reference.
(§2) In this method two-fold serial dilutions of drug in cation adjusted Mueller-Hinton broth are added to wells in microdilution trays. The test organisms are prepared by adjusting the turbidity of actively growing broth cultures so that the final concentration of test organism after it is added to the wells is approximately 5×10^4 CFU/well.
(§3) Following inoculation of the microdilution trays, the trays are incubated at 35° C. for 16-20 hours and then read. […] The amount of growth in the wells containing the test compound is compared with the amount of growth in the growth-control wells (no test compound) used in each tray. As set forth in Table 1, compounds of the present invention were tested against a variety of Gram positive and Gram negative pathogenic bacteria resulting in a range of activities depending on the organism tested.

[2] = test system: S. pneumoniae ATCC49619; settings: 35° C., 16-20 hours; for MIC: Streptococcus pneumoniae
Description: as §1, §2, §3

[3] = test system: S. aureus ATCC29213; settings: 35° C., 16-20 hours; for MIC: Staphylococcus aureus
Description: as §1, §2, §3

[4] = test system: E. faecalis ATCC29212; settings: 35° C., 16-20 hours; for MIC: Enterococcus faecalis
Description: as §1, §2, §3

[5] = test system: E. coli OC2605; settings: 35° C., 16-20 hours; for MIC: Escherichia coli
Description: as §1, §2, §3

Compound | MIC (μg/mL) E [1] [µg/mL] | MIC (μg/mL) D [2] [µg/mL] | MIC (μg/mL) B [3] [µg/mL] | MIC (μg/mL) C [4] [µg/mL] | MIC (μg/mL) A [5] [µg/mL] | MIC [1] [µg/mL] | MIC [2] [µg/mL] | MIC [3] [µg/mL] | MIC [4] [µg/mL] | MIC [5] [µg/mL]
CCC1OC(=O)C(C)C(=O)C(C)C(OC2OC(C)CC(N(C)C)C2O)C(C)(OC(N)=O)CC(C)C(=O)C(C)C2CC(=O)OC12C (centres unmarked) [Compound 1] | >16 | 0.5 (≈ 0.78 µM) | 8 (≈ 12.5 µM) | 2 (≈ 3.12 µM) | >16 | – | – | – | – | –
CCC1OC(=O)C(C)C(=O)C(C)C(OC2OC(C)CC(N(C)C)C2O)C(C)(OC(=O)NCc2ccc(-c3cncnc3)cc2)CC(C)C(=O)C(C)C2CC(=O)OC12C (centres unmarked) [Compound 2] | 16 (≈ 19.8 µM) | 0.06 (≈ 0.0742 µM) | 1 (≈ 1.24 µM) | 0.12 (≈ 0.148 µM) | >16 | – | – | – | – | –
CCC1OC(=O)C(C)C(=O)C(C)C(OC2OC(C)CC(N(C)C)C2O)C(C)(OC(=O)NCc2ccc3ncccc3c2)CC(C)C(=O)C(C)C2CC(=O)OC12C (centres unmarked) [Compound 3] | 8 (≈ 10.2 µM) | 0.06 (≈ 0.0767 µM) | 1 (≈ 1.28 µM) | 0.25 (≈ 0.32 µM) | >16 | – | – | – | – | –
CCC1OC(=O)C(C)C(=O)C(C)C(OC2OC(C)CC(N(C)C)C2O)C(C)(OC(=O)NCc2ccc(C(=O)O)cc2)CC(C)C(=O)C(C)C2CC(=O)OC12C (centres unmarked) [Compound 4] | >16 | 1 (≈ 1.29 µM) | >16 | 8 (≈ 10.3 µM) | >16 | – | – | – | – | –
CCC1OC(=O)C(C)C(=O)C(C)C(OC2OC(C)CC(N(C)C)C2O)C(C)(OC(=O)NCC=Cc2cnc3ccccc3c2)CC(C)C(=O)C(C)C2CC(=O)OC12C (centres unmarked) [Compound 5] | 16 (≈ 19.8 µM) | 0.03 (≈ 0.0371 µM) | 0.5 (≈ 0.619 µM) | 0.06 (≈ 0.0743 µM) | 16 (≈ 19.8 µM) | – | – | – | – | –
CCC1OC(=O)C(C)C(=O)C(C)C(OC2OC(C)CC(N(C)C)C2O)C(C)(OC(=O)NCC=Cc2ccc(-c3ccccn3)cc2)CC(C)C(=O)C(C)C2C(OC)C(=O)OC12C (centres unmarked) [Compound 6] | 8 (≈ 9.26 µM) | 0.25 (≈ 0.289 µM) | 1 (≈ 1.16 µM) | 1 (≈ 1.16 µM) | >16 | – | – | – | – | –
CC[C@H]1OC(=O)[C@H](C)C(=O)[C@H](C)[C@@H](OC2O[C@H](C)C[C@H](N(C)C)[C@H]2O)[C@](C)(OC(=O)NC/C=C/c2ccc(-c3ncccn3)cc2)C[C@@H](C)C(=O)C(C)C2CC(=O)O[C@@]21C (some centres unmarked) [Compound 7] | – | – | – | – | – | 8 (≈ 9.58 µM) | 0.06 (≈ 0.0719 µM) | 0.25 (≈ 0.299 µM) | 0.12 (≈ 0.144 µM) | > 16
CCC1OC(=O)C(C)C(=O)C(C)C(OC2OC(C)CC(N(C)C)C2O)C(C)(OC(=O)NCC=Cc2ccc(-c3cncnc3)cc2)CC(C)C(=O)C(C)C2CC(=O)OC12C (centres unmarked) [Compound 9] | 8 (≈ 9.58 µM) | 0.06 (≈ 0.0719 µM) | 0.5 (≈ 0.599 µM) | 0.25 (≈ 0.299 µM) | >16 | – | – | – | – | –
CCC1OC(=O)C(C)C(=O)C(C)C(OC2OC(C)CC(N(C)C)C2O)C(C)(OC(=O)NCC=Cc2ccc3cccnc3c2)CC(C)C(=O)C(C)C2C(OC)C(=O)OC12C (centres unmarked) [Compound 10] | 8 (≈ 9.55 µM) | 0.12 (≈ 0.143 µM) | 1 (≈ 1.19 µM) | 0.5 (≈ 0.597 µM) | >16 | – | – | – | – | –
CCC1OC(=O)C(C)C(=O)C(C)C(OC2OC(C)CC(N(C)C)C2O)C(C)(OC(=O)NCC=Cc2cncc(-c3ccccn3)c2)CC(C)C(=O)C(C)C2CC(=O)OC12C (centres unmarked) [Compound 11] | 4 (≈ 4.79 µM) | 0.06 (≈ 0.0719 µM) | 0.5 (≈ 0.599 µM) | 0.12 (≈ 0.144 µM) | >16 | – | – | – | – | –
CCC1OC(=O)C(C)C(=O)C(C)C(OC2OC(C)CC(N(C)C)C2O)C(C)(OC(=O)N(CC=Cc2cncc(-c3ccccn3)c2)CC=Cc2cncc(-c3ccccn3)c2)CC(C)C(=O)C(C)C2CC(=O)OC12C (centres unmarked) [Compound 12] | 16 (≈ 15.5 µM) | 0.12 (≈ 0.117 µM) | 2 (≈ 1.94 µM) | 0.5 (≈ 0.486 µM) | >16 | – | – | – | – | –
CCC1OC(=O)C(C)C(=O)C(C)C(OC2OC(C)CC(N(C)C)C2O)C(C)(OC(=O)NCC=Cc2cccc(-c3ccccn3)c2)CC(C)C(=O)C(C)C2CC(=O)OC12C (centres unmarked) [Compound 13] | 4 (≈ 4.8 µM) | 0.06 (≈ 0.0719 µM) | 1 (≈ 1.2 µM) | 0.25 (≈ 0.3 µM) | >16 | – | – | – | – | –
CCC1OC(=O)C(C)C(=O)C(C)C(OC2OC(C)CC(N(C)C)C2O)C(C)(OC(=O)NCC=Cc2cccc(-c3cccnc3)c2)CC(C)C(=O)C(C)C2CC(=O)OC12C (centres unmarked) [Compound 14] | 8 (≈ 9.59 µM) | 0.12 (≈ 0.144 µM) | 2 (≈ 2.4 µM) | 0.5 (≈ 0.6 µM) | >16 | – | – | – | – | –
CCC1OC(=O)C(C)C(=O)C(C)C(OC2OC(C)CC(N(C)C)C2O)C(C)(OC(=O)NCC=Cc2ccc(-c3ccccn3)cc2)CC(C)C(=O)C(C)C2CC(=O)OC12C (centres unmarked) [Compound 15] | 8 (≈ 9.59 µM) | 0.12 (≈ 0.144 µM) | 1 (≈ 1.2 µM) | 0.25 (≈ 0.3 µM) | >16 | – | – | – | – | –
CC[C@H]1OC(=O)[C@H](C)C(=O)[C@H](C)[C@@H](O[C@@H]2O[C@H](C)C[C@H](N(C)C)[C@H]2O)[C@](C)(OC(=O)NC/C=C/c2ccc(-n3cnnc3)cc2)C[C@@H](C)C(=O)C(C)[C@H]2CC(=O)O[C@@]21C (some centres unmarked) [Compound 16] | 4 (≈ 4.85 µM) | 0.06 (≈ 0.0728 µM) | 0.5 (≈ 0.607 µM) | 0.25 (≈ 0.303 µM) | 16 (≈ 19.4 µM) | – | – | – | – | –
CC[C@H]1OC(=O)[C@H](C)C(=O)[C@H](C)[C@@H](OC2O[C@H](C)C[C@H](N(C)C)[C@H]2O)[C@](C)(OC(=O)NC/C=C/c2cn(-c3cnccn3)cn2)C[C@@H](C)C(=O)C(C)C2CC(=O)O[C@@]21C (some centres unmarked) [Compound 17] | – | – | – | – | – | 4 (≈ 4.85 µM) | 0.06 (≈ 0.0727 µM) | 0.5 (≈ 0.606 µM) | 0.12 (≈ 0.145 µM) | > 16
CCC1OC(=O)C(C)C(=O)C(C)C(OC2OC(C)CC(N(C)C)C2O)C(C)(OC(=O)NCC#Cc2cccnc2)CC(C)C(=O)C(C)C2CC(=O)OC12C (centres unmarked) [Compound 18] | 8 (≈ 10.6 µM) | 0.12 (≈ 0.159 µM) | 2 (≈ 2.65 µM) | 0.5 (≈ 0.661 µM) | >16 | – | – | – | – | –
CCC1OC(=O)C(C)C(=O)C(C)C(OC2OC(C)CC(N(C)C)C2O)C(C)(OC(=O)NCc2ccccc2)CC(C)C(=O)C(C)C2CC(=O)OC12C (centres unmarked) [Compound 19] | >16 | 0.25 (≈ 0.342 µM) | 16 (≈ 21.9 µM) | 1 (≈ 1.37 µM) | >16 | – | – | – | – | –
CCC1OC(=O)C(C)C(=O)C(C)C(OC2OC(C)CC(N(C)C)C2O)C(C)(OC(=O)NCc2ccc(Br)cc2)CC(C)C(=O)C(C)C2CC(=O)OC12C (centres unmarked) [Compound 20] | 16 (≈ 19.8 µM) | 0.12 (≈ 0.148 µM) | 2 (≈ 2.47 µM) | 0.5 (≈ 0.617 µM) | >16 | – | – | – | – | –
CCC1OC(=O)C(C)C(=O)C(C)C(OC2OC(C)CC(N(C)C)C2O)C(C)(OC(=O)NCc2ccc(C=Cc3ccccc3)cc2)CC(C)C(=O)C(C)C2CC(=O)OC12C (centres unmarked) [Compound 21] | 8 (≈ 9.6 µM) | 0.25 (≈ 0.3 µM) | 2 (≈ 2.4 µM) | 1 (≈ 1.2 µM) | >16 | – | – | – | – | –
CC[C@H]1OC(=O)[C@H](C)C(=O)[C@H](C)[C@@H](OC2O[C@H](C)C[C@H](N(C)C)[C@H]2O)[C@](C)(OC(=O)NC/C=C/c2cncc3ccccc23)C[C@@H](C)C(=O)C(C)C2CC(=O)O[C@@]21C (some centres unmarked) [Compound 30] | – | – | – | – | – | 2 (≈ 2.48 µM) | – | 0.25 (≈ 0.309 µM) | 0.12 (≈ 0.149 µM) | 16 (≈ 19.8 µM)

— patent publication US6713455B2, “6-O-carbamate-11,12-lacto-ketolide antimicrobials” (Ortho-McNeil Pharmaceutical, Inc., priority 2001, dated 2004)
